Assays:
[1] = test system: normal cells (BJ, CHO, Raw264.7, L929); test: Growth inhibition of normal cells, Cell Counting Kit-8; format: cell-based, human (BJ); hamster (CHO); murine (Raw264.7); mouse (L929); settings: concentrations of up to less than 40 μM, 24 hours
Description: (§1) In order to verify the growth inhibitory effect of Compound 1 on various normal and cancer cell lines, 25 types of cell lines listed in Table 7 below were tested. In detail, each cell was seeded at a density of 2×10^4 cells/well in a 96-well plate and cultured for 24 hours, and then the medium was replaced with a medium comprising 0.5% (for cancer cells) or 10% (for normal cells) FBS, and Compound 1 was treated at various concentrations. 24 hours later, 10 μL of Cell Counting Kit-8 (Dojindo Molecular Technologies) was added, and 1 hour later, absorbance at 480 nm was measured using a microplate reader (TECAN SPARK), and the results are shown in FIGS. 15 to 21.

[2] = as above; format: cell-based, human (BJ); hamster (CHO); murine (Raw264.7); mouse (L929); settings: normal cells, concentration of up to less than 40 μM, 10% FBS, FIG. 15
Description: as §1

[3] = test system: DSS-induced colitis in C57BL6J JmcSlc mice; test: DSS colitis, inflammatory bowel disease animal model; format: in vivo, mouse; settings: for colonic epithelial cell recovery (H&E): FIG. 6A
Description: Colitis was induced in 8-week-old male C57BL6J JmcSlc mice by feeding 3.5% dextran sodium sulfate (DSS) ad libitum for 9 days, and then replacing the same with normal drinking water. The vehicle and Compound 1 (0.5 mg/kg or 1 mg/kg) were orally administered to the experimental animal model prepared as described above daily from 2 days before DSS drinking until the end of drinking. In order to determine the degree of colonic inflammation, the degree of longitudinal contraction of the isolated colon was measured, and the histological scores were confirmed through H&E staining, which is shown in FIG. 6. Furthermore, total RNA was isolated from the isolated colon, cDNA was synthesized, and the expression levels of representative cytokines (IFNγ, IL-1β, IL-4, IL-6, IL-10, IL-12β, IL-17α, and TNFα) were measured and compared using qPCR, and the results are shown in FIG. 7.

cancer cells = test: Growth inhibition of cancer cells, Cell Counting Kit-8; format: cell-based; settings: 24 hours, 0.5% FBS; FIGS. 16 to 20
Description: as §1

CT26 colorectal cancer = CT26 colorectal cancer tumor model; format: in vivo, nude mice; settings: 1.0 mg/kg, FIG. 22
Description: A colorectal cancer model was established by subcutaneously transplanting CT26 colorectal cancer cell line into nude mice. The colorectal cancer model was divided into two groups: vehicle administration group and Compound 1 administration group. […] Similar to Experimental Example 13, tumor size was calculated before drug administration and on days 3, 7, 10, 14, 18, 22, and 24 after drug administration, and body weight was measured before drug administration and on days 7, 14 and 22 after drug administration, which are shown in FIG. 22.

Mfn2−/− MEF cells = test: Mitochondrial oxygen consumption rate, Charcot-Marie-Tooth disease model; format: cell-based, mouse; settings: 1 μM, 24 hours, FIG. 13
Description: To verify the functional loss due to mutation of MFN2 present in the outer mitochondrial membrane, which is the main cause of Charcot-Marie-Tooth disease, the mitochondrial oxygen consumption rate (OCR) was measured. In detail, Mfn2^+/^+MEF cells (normal cells), which are mouse embryonic fibroblasts expressing Mfn2, and Mfn2/MEF cells not expressing Mfn2 were cultured at a density of 1×10^4 for 24 hours in a Seahorse […] culture dish using a DMEM medium supplemented with 10% FBS and penicillin/streptomycin. The cells were treated with DMSO as a vehicle and Compound 1 (1 μM) and cultured for another 24 hours. The mitochondrial oxygen consumption rate was measured using a Seahorse XFe96 analyzer (Agilent Technologies), and the results are shown in FIG. 13.

[4] = test system: bone marrow-derived dendritic cells (BMDCs); test: IL-1β release (inflammasome formation) in LPS/ATP-stimulated bone marrow-derived dendritic cells, ELISA; format: cell-based, C57BL6 mice; settings: versus vehicle control
Description: Furthermore, to verify the anti-inflammatory effect at a cellular level, bone marrow cells of C57BL6 mice were treated with 20 ng/ml of GM-CSF and IL-4, and 6 days later, bone marrow-derived dendritic cells (BMDCs) were collected. The BMDCs were prepared at 1×10^6 cells/mL and stabilized for one day, and then subsequent experiments were conducted. The above dendritic cells were treated with 500 ng/ml of LPS for 3 hours to prime pro-IL1B, and then treated with Compound 1 (0 μM, 0.01 µM, 0.1 μM, 1 μM, and 10 μM) for 15 minutes. Next, 5 mM of ATP was treated, which induces inflammasome formation by converting pro-IL1B to IL-1B through pro-IL1B cleavage, and 30 minutes later, the concentration of IL-1B in the supernatant was measured by ELISA, and the results are shown in FIG. 10 and Table 3.

[5] = test system: cerulein-induced acute pancreatitis in mice; test: Cerulein-induced acute pancreatitis animal model; format: in vivo, mouse; settings: 5 μg/kg or 10 μg/kg, tail vein; versus Cerulein; FIG. 8
Description: Acute pancreatitis was induced by intraperitoneal administration of cerulein (50 μg/kg) dissolved in saline to 8-week-old male mice. Compound 1 was administered at a concentration of 5 μg/kg or 10 μg/kg into the tail vein 24 hours and 1 hour before cerulein administration, and cerulein was intraperitoneally administered six times at 1-hour intervals. 18 hours after the first cerulein administration, the mice were anesthetized, the serum was separated, and the amylase and lipase activities in the serum were measured, which are shown in FIG. 8.

[6] = colon tissue, qPCR, versus vehicle, FIG. 7

CC(C(=O)NNc1ccc(F)cc1)n1cc(-c2cc(F)cc3c2-c2ccccc2C3(O)C(F)(F)F)cn1 (stereo not drawn) [Compound 1, 2-(4-(2-fluoro-9-hydroxy-9-(trifluoromethyl)-9H-fluoren-4-yl)-1H-pyrazol-1-yl)-N′-(4-fluorophenyl)propanehydrazide]
toxicity on normal cells [1]: does not exhibit toxicity on normal cells | viability at 24 h [2]: ≥ 70% | longitudinal contraction of colon ([3]; 0.5 mg/kg and 1 mg/kg, oral daily, versus vehicle, FIGS. 6C and 6D): the contraction was alleviated both in the group administered 0.5 mg/kg of Compound 1 and in the group administered 1 mg/kg of Compound 1, as compared to the vehicle administration group, and the effect increased as the administration amount increased | colonic epithelial cell recovery (H&E) ([3]; 0.5 mg/kg, oral daily): the recovery was slight | colonic epithelial cell recovery (H&E) ([3]; 1 mg/kg, oral daily): remarkable epithelial cell recovery | tissue (histological) score ([3]; 1 mg/kg, oral daily, FIG. 6B): the lowest score | IFNγ mRNA expression [3, 6]: significantly reduced | IL-4 mRNA expression [3, 6]: increased | IL-6 mRNA expression [3, 6]: significantly reduced | IL-12b mRNA expression [3, 6]: significantly reduced | IL-17a mRNA expression [3, 6]: significantly reduced | TNFα mRNA expression [3, 6]: significantly reduced | viability of cancer cells (in words) (cancer cells): decreased the viability of cancer cells in a concentration-dependent manner | body weight change (CT26 colorectal cancer): Neither the vehicle administration group nor the compound 1 administration group showed any change in the body weight | tumor growth (in words) (CT26 colorectal cancer; p<0.05 versus vehicle): statistically significantly delayed and inhibited | mitochondrial oxygen consumption rate (OCR) (Mfn2−/− MEF cells): markedly restored to a level comparable to that of normal cells | inhibition at 0.1 µM ([4]; Mus musculus, BMDC, 0.1 µM, read-out: inhibition of IL-1β expression): ~83.8% | inhibition at 10 µM ([4]; Mus musculus, BMDC, 10 µM, read-out: inhibition of IL-1β expression): ~53.8% | inhibition of IL-1β expression (in words) ([4]; FIG. 10): significantly inhibited | serum amylase activity [5]: decreased by administration of Compound 1 in a dose-dependent manner | serum lipase activity [5]: decreased by administration of Compound 1 in a dose-dependent manner

Source: patent publication US20260345595A1, “NOVEL FLUORENE DERIVATIVE COMPOUND AND USE THEREOF” (JD BIOSCIENCE INC., priority 2022, published 2026)
